Source: PubChem BioAssay (NCI)
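Five concentrations, 48 hours, 96-well plates. GI50 = concentration required for 50% inhibition of growth. Definition used: TGI = concentration required for complete inhibition of growth.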

Legend:
Assay in all cases: DTP human tumour cell line panel, 48 h
[1] = tested on: K-562 leukemia
[2] = tested on: U251 CNS
[3] = tested on: LOX IMVI melanoma
[4] = tested on: COLO 205 colon
[5] = tested on: UO-31 renal
[6] = tested on: 786-0 renal
[7] = tested on: NCI-H226 lung
[8] = tested on: DU-145 prostate
[9] = tested on: HCT-116 colon
[10] = tested on: OVCAR-4 ovarian
[11] = tested on: MCF7 breast
[12] = tested on: PC-3 prostate
[13] = tested on: T-47D breast
[14] = tested on: NCI-H522 lung
[15] = tested on: SK-OV-3 ovarian
[16] = tested on: MDA-MB-231 breast
[17] = tested on: OVCAR-3 ovarian
[18] = tested on: M14 melanoma
[19] = tested on: HS 578T breast
[20] = tested on: NCI/ADR-RES ovarian
[21] = tested on: RPMI-8226 leukemia
[22] = tested on: SF-268 CNS
[23] = tested on: SK-MEL-5 melanoma
[24] = tested on: SK-MEL-2 melanoma
[25] = tested on: BT-549 breast
[26] = tested on: SF-295 CNS
[27] = tested on: A498 renal
[28] = tested on: KM12 colon
[29] = tested on: HT29 colon

For `CN(C)CCOc1ccc(C(=O)C2[C@H](c3ccc(Cl)cc3)[C@@H](c3ccccc3)NC23C(=O)Nc2ccc(Br)cc23)cc1` (stereo partly drawn), which GI50 [1] is on record?
The GI50 was 2.73 µM.

And the TGI [1]?
The TGI was 9.03 µM.

What about the GI50 [2] of the same molecule?
The GI50 was 2.59 µM.

What about the TGI [2] of the same molecule?
Its TGI is 4.96 µM.

What about the GI50 [3] of the same molecule?
The GI50 was 2.42 µM.

And the TGI [3]?
The TGI was 4.61 µM.

What about the GI50 [4] of the same molecule?
The GI50 was 2.75 µM.

What about the TGI [4] of the same molecule?
Its TGI is 5.37 µM.

What about the GI50 [5] of the same molecule?
The GI50 was 2.3 µM.

And the TGI [5]?
Its TGI is 4.63 µM.

And the GI50 [6]?
The GI50 was 2.68 µM.

What about the TGI [6] of the same molecule?
Its TGI is 4.95 µM.

And the GI50 [7]?
The GI50 was 2.65 µM.

And the TGI [7]?
The TGI was 5.6 µM.

What about the GI50 [8] of the same molecule?
Its GI50 is 2.7 µM.

And the TGI [8]?
Its TGI is 5 µM.

What about the GI50 [9] of the same molecule?
Its GI50 is 2.4 µM.

What about the TGI [9] of the same molecule?
The TGI was 4.82 µM.

What about the GI50 [10] of the same molecule?
The GI50 was 2.47 µM.

What about the TGI [10] of the same molecule?
The TGI was 4.91 µM.

What about the GI50 [11] of the same molecule?
Its GI50 is 2.41 µM.

What about the TGI [11] of the same molecule?
The TGI was 5.05 µM.

What about the GI50 [12] of the same molecule?
Its GI50 is 2.48 µM.

And the TGI [12]?
Its TGI is 4.94 µM.

What about the GI50 [13] of the same molecule?
Its GI50 is 2.33 µM.

What about the TGI [13] of the same molecule?
The TGI was 5.18 µM.

What about the GI50 [14] of the same molecule?
Its GI50 is 2.87 µM.

What about the TGI [14] of the same molecule?
Its TGI is 5.56 µM.

What about the GI50 [15] of the same molecule?
Its GI50 is 4.39 µM.

What about the TGI [15] of the same molecule?
Its TGI is 16.3 µM.

What about the GI50 [16] of the same molecule?
Its GI50 is 2.41 µM.

What about the TGI [16] of the same molecule?
Its TGI is 4.59 µM.

And the GI50 [17]?
Its GI50 is 2.24 µM.

What about the TGI [17] of the same molecule?
The TGI was 4.57 µM.

What about the GI50 [18] of the same molecule?
The GI50 was 2.89 µM.

What about the TGI [18] of the same molecule?
The TGI was 5.45 µM.

What about the GI50 [19] of the same molecule?
The GI50 was 2.18 µM.

What about the TGI [19] of the same molecule?
Its TGI is 6.88 µM.

What about the GI50 [20] of the same molecule?
Its GI50 is 2.68 µM.

What about the TGI [20] of the same molecule?
Its TGI is 5.07 µM.

What about the GI50 [21] of the same molecule?
The GI50 was 3.33 µM.

And the TGI [21]?
Its TGI is 8.37 µM.

And the GI50 [22]?
The GI50 was 2.47 µM.

And the TGI [22]?
The TGI was 5.46 µM.

And the GI50 [23]?
Its GI50 is 2.52 µM.

What about the TGI [23] of the same molecule?
The TGI was 4.71 µM.

And the GI50 [24]?
The GI50 was 2.68 µM.

And the TGI [24]?
Its TGI is 5.16 µM.

What about the GI50 [25] of the same molecule?
The GI50 was 3 µM.

And the TGI [25]?
The TGI was 5.82 µM.

And the GI50 [26]?
The GI50 was 2.48 µM.

And the TGI [26]?
The TGI was 4.68 µM.

What about the GI50 [27] of the same molecule?
Its GI50 is 2.53 µM.

What about the TGI [27] of the same molecule?
Its TGI is 4.99 µM.

What about the GI50 [28] of the same molecule?
The GI50 was 2.8 µM.

And the TGI [28]?
The TGI was 5.46 µM.

And the GI50 [29]?
The GI50 was 2.47 µM.

What about the TGI [29] of the same molecule?
The TGI was 5.2 µM.
